In publication PMC7417813, “Synthesis and Biological Evaluation of Thio-Derivatives of 2-Hydroxy-1,4-Naphthoquinone (Lawsone) as Novel Antiplatelet Agents” (Frontiers in Chemistry, 2020):
Entries after “also recorded” stand apart in the source; their conditions may differ. Read-outs that look alike come from different tables or passages of the source.

Legend:
[1] = test system: TRAP-6-stimulated platelets; experiment: Platelet aggregation induced by TRAP-6 (light transmission, lumi-aggregometer); assay type: cell-based, human; conditions: platelet aggregation induced by TRAP-6 (5 μM), washed platelets pre-incubated 5 min at 37°C, read-out: IC50 (μM) ± SD TRAP-6 (5 μM)
Procedure: (§1) Platelet aggregation was evaluated using a lumi-aggregometer (Chrono-Log, Haverton, PA, USA) and monitored by light transmission according to Fuentes et al. (Fuentes et al., [2014a]; Mendez et al., [2020]). Briefly, washed platelets (200 × 10^9 platelets/L) were pre-incubated for 5 min at 37°C and pH 7.4 with vehicle or different doses of compounds; then platelet aggregation was induced by TRAP-6 (5 μM) or collagen (1 μg/mL) and measured for 5 min at 37°C while stirring.
(§2) The data obtained were presented as a mean ± standard deviation (SD) of three independent experiments and analyzed using Prism 8.3 software (GraphPad Inc., San Diego CA, USA). The half-maximal inhibitory concentration (IC50) was calculated from dose-response curves. Differences between samples were analyzed using Tukey or paired t-test (Vaiyapuri et al., [2013]). P-values < 0.05 were considered as significant (Fuentes et al., [2014b]; Munoz-Gutierrez et al., [2017]).

[2] = test system: collagen-stimulated platelets; experiment: Platelet aggregation induced by collagen (light transmission, lumi-aggregometer); assay type: cell-based, human; conditions: platelet aggregation induced by collagen (1 μg/mL), washed platelets pre-incubated 5 min at 37°C, read-out: IC50 (μM) ± SD Collagen (1 μg/mL)
Procedure: as §1, §2

washed platelets = experiment: Lactate dehydrogenase (LDH)-based cytotoxicity assay on washed platelets; conditions: for cytotoxicity on platelets by LDH leakage (in words): 100 μM, 10 min at 37°C; for Cytotoxic activity Mean (%) ± SD: LDH release as percentage of total enzyme activity (0.3% Triton X-100 lysis), 100 μM compound, 10 min, 37°C, washed platelets
Procedure: Platelets were obtained from citrated whole blood of healthy volunteers (two weeks drugs-free) with written informed consent, as previously described (Fuentes et al., [2014a]).
Washed platelets (200 × 10^9 platelets/L) were incubated for 10 min at 37°C with DMSO (vehicle) 0.2% or 100 μM of compounds. Then, platelets are centrifuged (800 × g for 8 min), and 50 μL aliquots of the resulting supernatant analyzed by the LDH assay (Cayman Chemical, USA).

platelets = experiment: Externalization of phosphatidylserine by annexin-V binding (flow cytometry); assay type: cell-based, human; conditions: Figure 3A
Procedure: (§3) Externalization of phosphatidylserine, glycoprotein (GP) IIb/IIIa activation, P-selectin expression, CD63 release, and ROS levels on platelets were determined by flow cytometry (Ritchie et al., [2000]; Fuentes et al., [2014b]; Walsh et al., [2014]). All results were analyzed in the Accuri C6 flow cytometer (BD, Biosciences, USA).
(§4) Figure 3 Antiplatelet activity of compound 4. (A) Externalization of phosphatidylserine was evaluated by annexin-V binding. (B) Levels of CD63 on the surface of platelets after activation by TRAP-6 (5 μM) or collagen (1 μg/mL). (C) P-selectin expression was measured by flow cytometry in platelets stimulated with TRAP-6 (5 μM) or collagen (1 μg/mL). (D) GPIIb/IIIa activation stimulated by TRAP-6 (5 μM) or collagen (1 μg/mL) was determined by flow cytometry using the PAC-1 antibody. The graph depicts the mean ± SD of n = 3 experiments. The black graph is the control of resting platelets. ^*p < 0.05, ^**p < 0.01, and ^***p < 0.001 vs. 0 (vehicle DMSO 0.2%).

CD63 = CD63 levels on the surface of platelets (flow cytometry); assay type: cell-based, human; conditions: Figure 3B
Procedure: as §3, §4

P-selectin = P-selectin expression on platelets (flow cytometry); assay type: cell-based, human; conditions: compound at 10 and 40 μM, Figure 3C
Procedure: as §3, §4

GPIIb/IIIa = GPIIb/IIIa activation by PAC-1 antibody binding (flow cytometry); assay type: cell-based, human; conditions: Figure 3D
Procedure: as §3, §4
Small structural changes led to the synthesis of non-toxic lawsone thio-derivatives with potent antiplatelet activity (Tables 1, 3). […] Thus, we decided to deeply analyze the effects of compound 4 in platelets. […] We analyzed the activated form of GPIIb/IIIa by studying the binding of FITC-labeled PAC-1 antibody by flow cytometry (Fuentes et al., [2014a]).

IC50 ([1]; Homo sapiens) [µM]	IC50 ([2]; Homo sapiens) [µM]	melting point	Compound	cytotoxicity on platelets by LDH leakage (in words) (washed platelets)	Cytotoxic activity Mean (%) ± SD (washed platelets) [%]	also measured
		235 °C (dec.)	COC(=O)c1ccccc1SC1=C(O)C(=O)c2ccccc2C1=O [Compound 5, Methyl 2-((3-hydroxy-1,4-dioxo-1,4-dihydronaphthalen-2-yl)thio)benzoate]	had a cytotoxic activity	31.12 ± 3.06	
> 500	10.6 ± 2.25		O=C1C(O)=C(Sc2ccccc2F)C(=O)c2ccccc21 [Compound 6, 2-((2-Fluorophenyl)thio)-3-hydroxynaphthalene-1,4-dione]	did not exert cytotoxicity	21.77 ± 2.37	
134 ± 17.3	11.1 ± 1.69	268.7 °C (dec.)	O=C1C(O)=C(Sc2cccc(F)c2)C(=O)c2ccccc21 [Compound 7, 2-((3-Fluorophenyl)thio)-3-hydroxynaphthalene-1,4-dione]	did not exert cytotoxicity	21.50 ± 2.37	

The remaining lines, values behind:

Compound	IC50 ([1]; Homo sapiens) [µM]	IC50 ([2]; Homo sapiens) [µM]	melting point	cytotoxicity on platelets by LDH leakage (in words) (washed platelets)	Cytotoxic activity Mean (%) ± SD (washed platelets) [%]	also measured
2-((2-bromophenyl)thio)-3-hydroxynaphthalene-1,4-dione [Compound 2]				did not exert cytotoxicity	14.72 ± 10.92	IC50 [1]: 112 ± 17.5 µM; IC50 [2]: 11.2 ± 3.9 µM
2-((4-Bromophenyl)thio)-3-hydroxynaphthalene-1,4-dione [Compound 4]				no cytotoxicity was observed; also recorded: did not exert cytotoxicity; also recorded: non-toxic	22.38 ± 5.78	IC50 [1]: 15 ± 1.52 µM; IC50 [2]: 5.58 ± 1.01 µM; phosphatidylserine exposure (platelets): unable to affect; expression of CD63 on platelets' membrane (CD63; after activation with TRAP-6 (5 μM)): decreased; expression of CD63 on platelets' membrane (CD63; after activation with collagen (1 μg/mL)): decreased; P-selectin expression on activated platelets (P-selectin; TRAP-6 (5 μM)): inhibited; P-selectin expression on activated platelets (P-selectin; collagen (1 μg/mL)): inhibited; PAC-1 binding to platelets (GPIIb/IIIa activation) (GPIIb/IIIa; TRAP-6-induced): inhibited; PAC-1 binding to platelets (GPIIb/IIIa activation) (GPIIb/IIIa; collagen-induced): inhibited
O=C1C(O)=C(Sc2ccccc2)C(=O)c2ccccc21 [Compound 1, 2-Hydroxy-3-(phenylthio)naphthalene-1,4-dione]	155 ± 55.2	14.6 ± 5.43		did not exert cytotoxicity	22.35 ± 2.94	
O=C1C(O)=C(Sc2ccc(F)cc2)C(=O)c2ccccc21 [Compound 8, 2-((4-Fluorophenyl)thio)-3-hydroxynaphthalene-1,4-dione]	108 ± 53	12.1 ± 1.21	268 °C (dec.)	did not exert cytotoxicity	21.62 ± 4.17	
O=C1C=C(O)C(=O)c2ccccc21 [Lawsone, 2-hydroxy-1,4-naphthoquinone]				had a cytotoxic activity	32.80 ± 3.13	
